The values below come from patent US20070212428A1, “METHODS AND COMPOSITIONS FOR TREATING MOOD DISORDER” (MOOD MANAGEMENT SCIENCES, INC., priority 2004, published 2007).

The structures appear in SMILES notation. Structures can show the parent of a compound that is named as a salt. Where two headings read alike, the source gives them in different places.

For series [1] the following is noted: cited from earlier work; for time to peak plasma concentration: after oral dosing.
The subject of series [2] is Dysthymia. The series is described as follows: Example 10: case, dysthymia with general anxiety disorder. The note with it: earlier treatment with 40 mg.
The test system of series [3] is norepinephrine neuronal reuptake. Conditions: cited from earlier work.
Series [4] deals with dopamine neuronal reuptake. Conditions: cited from earlier work.
Series [5] deals with muscarinic, histaminergic, or a-l adrenergic receptors. Conditions: in vitro; cited from earlier work.
For series [6] the following is noted: cited from earlier work.
The test system of series [7] is neuronal serotonin reuptake. The note with it: cited from earlier work.
The subject of series [8] is Dysthymia. The series is described as follows: Example 12: method for treating Dysthymia (a person). In kind it is in vivo, human. The note with it: 10 years prior; 60 mg fluvoxamine, 40 mg paroxetine.
In a further series the test system is monoamine oxidase. The note with it: cited from earlier work.
[9] abbreviates: co-administered with venlafaxine.
[10] abbreviates: 30 mg oral dose, over a 10 day period.

Turning to `CN(C)CCCC1(c2ccc(F)cc2)OCc2cc(C#N)ccc21` (racemic) [citalopram, (±)-1-[3-(dimethylamino)propyl]-1-(4-fluorophenyl)-1,3-dihydro-5-isobenzofuran carbonitrile, hydrobromide], in [1], the “time to peak plasma concentration” value was “four”. The “time to steady state plasma concentrations” value in series [1] (daily dosing) was “a week”. The “increase of half life in elderly patients” value in series [1] (elderly patients) is on record as 23-50%. In [1] (plasma), the elimination half-life entry was “about 35 hours”.

Consider `CNCCC(Oc1ccc(C(F)(F)F)cc1)c1ccccc1.Cl` (racemic) [fluoxetine, (±)-N-methyl-3-phenyl-[(α,α,α-trifluoro-p-tolyl)oxyl]propylamine hydrochloride], for which, in series [1] (following acute administration), the half life was 24 to 72 h. For the same molecule, the “effect on depressive symptoms” value in the series with Dysthymia [2] was “decreased depressive symptoms”. Also, in the series on Dysthymia [2] (subsequently discontinued), the adverse effect result is ““dulled” the patient cognitively”.

For `COc1ccc(C(CN(C)C)C2(O)CCCCC2)cc1.Cl` (racemic) [venlafaxine, (R/S)-1-[2-(dimethylamino)-1-(4-methoxyphenyl)ethyl] cyclohexanol hydrochloride], in series [3], the “effect on norepinephrine reuptake (in words)” value is “potent inhibitors”. Besides, the “effect on dopamine reuptake (in words)” value in series [4] is listed as “weak inhibitors”. Further, the affinity entry in series [5] was “not significant affinity”. The “oral absorption (in words)” value in [1] (oral administration) is reported as “well absorbed”. Further, the elimination half-life in series [1] (plasma) was 3 to 7 h. The “fraction renally excreted within 48 hours” value in series [1] (single dose) was 87%. Also, the steady-state pharmacokinetics result in [6] (venlafaxine 150 mg/day with a single 600 mg oral dose of lithium, 12 healthy males) was “unaffected”.

As to `NC(=O)N1c2ccccc2CC(O)c2ccccc21` (stereo not drawn) [MHD], the elimination half-life entry in series [1] (human, in vivo) is given as “about 9 hours”.

As for `CN(C)CC(c1ccc(O)cc1)C1(O)CCCCC1` (stereo not drawn) [ODV, O-desmethylvenlafaxine], the “inhibition of serotonin reuptake (in words)” value in [7] is recorded as “potent inhibitors”. Moreover, the “effect on norepinephrine reuptake (in words)” value in series [3] is “potent inhibitors”. Also, the “effect on dopamine reuptake (in words)” value in series [4] was “weak inhibitors”. In series [5], the affinity entry is listed as “not significant affinity”. The elimination half-life in [1] (human, in vivo) was 9 to 13 h.

With `Clc1ccc2c(c1)C(N1CCNCC1)=Nc1ccccc1O2` [amoxapine, 2-Chloro-11-(1-piperazinyl)dibenz-[b,f][1,4]oxazepine], the “time to peak plasma concentration” value in series [1] is given as “approximately 90 minutes”. Further, the “oral absorption (in words)” value in series [1] (oral administration) is reported as “absorbed rapidly”.

On to `CN(C)CCCN1c2ccccc2Sc2ccc(Cl)cc21` [chlorpromazine, 10-(3-dimethylaminopropyl)-2-chlorphenothiazine], for which the “oral absorption (in words)” value in [1] (oral administration) is reported as “readily absorbed”. For the same molecule, the elimination half-life result in series [1] (plasma) is on record as “approximately 30 hours”.

`O=c1ccc2ccc(OCCCCN3CCN(c4cccc(Cl)c4Cl)CC3)cc2[nH]1` [dehydro-aripiprazole]: the pharmacokinetics result in [6] (lithium (1200-1800 mg/day) for 21 days with aripiprazole (30 mg/day)) was “did not result in clinically significant changes”.

With `COCCCC/C(=N\OCCN)c1ccc(C(F)(F)F)cc1` [fluvoxamine], the “outcome of prior antidepressant trials” value in the series on Dysthymia [8] is given as “unsuccessfully”.

Take `O=C(CCCN1CCC(O)(c2ccc(Cl)cc2)CC1)c1ccc(F)cc1` [haloperidol, 4-[4-(p-chlorophenyl)-4-hydroxypiperidino]-4′-fluorobutyrophenone]: in series [1] (after i.m. injection), the “time to peak plasma level” value was “about 20 minutes”. Also, in series [6] (setting [9]), the half life entry was “unchanged” and the “increase of peak plasma concentration (Cmax)” value is recorded as 88%. Besides, in [6] (single 2 mg dose of haloperidol with venlafaxine 150 mg/day), the “increase in the area under the plasma concentration curve” value is 70%.

For the molecule `CC[C@@H](C(N)=O)N1CCCC1=O` [levetiracetam, (−)-(S)-α-ethyl-2-oxo-1-pyrrolidine acetamide], the “time to peak plasma concentration” value in [1] is “about an hour”. For the same molecule, the reduction of clearance is reported as 50% in series [1] (moderate renal impairment) and 60% in [1] (severe renal impairment). Also, in series [1] (oral administration), the “oral absorption (in words)” value was “rapidly and almost completely absorbed”. Besides, the elimination half-life entry in series [1] (plasma) is recorded as “approximately 7 hours”.

As to `[Li]` [lithium], in series [1] (human, in vivo), the “CSF lithium level at equilibration relative to the plasma concentration” value was “approximately half”, the “fraction eliminated with the feces” value is “less than 1%”, the “fraction of a single dose eliminated in urine” value is “Approximately 95%” and the “fraction of a single dose excreted in 24 hours” value is given as “About 50%”. In [1] (human, in vivo), the “fraction of the filtered lithium reabsorbed in the tubules” value is on record as 80%. Besides, in [1] (oral administration), the “oral absorption (in words)” value is listed as “rapidly absorbed”. The “time to steady state plasma concentrations” value in [1] (repeated dosing) is on record as “five to six”. In addition, the “AUC and peak plasma concentrations of lithium” value in series [6] (co-administered with risperidone) is given as “unaffected”. The kinetics of lithium entry in [6] (multiple doses of olanzapine (10 mg for 8 days)) is on record as “did not influence”. Moreover, the “steady state kinetics of lithium” value in series [6] (valproate (500 mg BID) with lithium carbonate (300 mg TID), normal male volunteers) is given as “not effect”. Further, the “steady-state pharmacokinetic parameters of lithium” value in series [6] (with quetiapine (250 mg TID)) was “no effect”. Further, the “steady-state pharmacokinetics of lithium” value in series [6] (with venlafaxine) is listed as “unaffected”. The “steady state level and renal clearance of lithium” value in series [6] (ziprasidone (40 mg BID) with lithium (450 mg BID for 7 days)) is listed as “not affected”.

For `CN1CCN(C2=Nc3ccccc3Oc3ccc(Cl)cc32)CC1` [loxapine succinate, 2-Chloro-11-(4-methyl-1-piperazinyl)dibenz[b,f][1,4]oxazepine], in series [1] (oral administration), the “oral absorption (in words)” value is listed as “virtually complete” and the time of excretion entry is “mainly in the first 24 hours”.

With `CNCCCC12CCC(c3ccccc31)c1ccccc12` [maprotiline, N-Methyl-9,10-ethanoanthracene-9(10H)-propanamine], the “oral absorption (in words)” value in [1] (oral administration) is “completely absorbed”.

As to `NC(=O)C[S+]([O-])C(c1ccccc1)c1ccccc1` (stereo not drawn) [modafinil, 2-[(diphenylmethyl)sulfinyl]acetamide], the “time to peak plasma concentration” value in [1] was 2 to 4 h. For the same molecule, the “oral absorption (in words)” value in series [1] (oral administration) is “rapid”.

Take `CCc1nn(CCCN2CCN(c3cccc(Cl)c3)CC2)c(=O)n1CCOc1ccccc1` [nefazodone, 2-[3-[4-(3-chlorophenyl)-1-piperazinyl]propyl]-5-ethyl-2,4-dihydro-4-(2-phenoxyethyl)-3H-,1,2,4-triazo-3-one monohydrochloride]: in series [1] (plasma), the elimination half-life was 2 to 4 h.

For `Fc1ccc([C@@H]2CCNC[C@H]2COc2ccc3c(c2)OCO3)cc1` [paroxetine, (−)-trans-4R-(4′-fluorophenyl)-3S-[(3′,4′-methylenedioxyphenloxy)methyl]piperidine hydrochloride hemihydrate], the “outcome of prior antidepressant trials” value in the series with Dysthymia [8] was “unsuccessfully”. Further, the “effect on norepinephrine reuptake (in words)” value in series [3] is given as “only very weak effects”. In addition, the “effect on dopamine reuptake (in words)” value in series [4] was “only very weak effects”. In addition, in [1] (setting [10]), the “fraction of dose renally excreted” value is given as “Approximately 64%”, the “fraction of dose renally excreted as metabolites” value was 62% and the “fraction of dose renally excreted as the parent compound” value is 2%. The “fraction of dose excreted in the feces” value in series [1] (30 mg oral dose) was 36%. In addition, the “oral absorption (in words)” value in [1] (oral administration) is “completely absorbed”. Further, the “time to steady state plasma concentrations” value in [1] (repeated dosing) was “approximately 10 days”.

Consider `NNCCc1ccccc1` [phenelzine sulfate, (2-phenethyl)hydrazine], for which, in the series on monoamine oxidase, the “inhibition of monoamine oxidase” value is listed as “potent inhibitor”. Also, the “time to peak plasma concentration” value in [1] was 0.717 h. In addition, the elimination half-life in [1] (plasma) was 11.6 h.

Take `CSc1ccc2c(c1)N(CCC1CCCCN1C)c1ccccc1S2` (stereo not drawn) [thioridazine, 2-methylmercapto-10-[2-(N-methyl-2-piperidyl)ethyl]phenothiazine]: the elimination half-life result in series [1] (plasma) was “approximately 10 hours”.

In the case of `CC1(C)O[C@@H]2[C@@H](CO[C@@]3(COS(N)(=O)=O)OC(C)(C)O[C@@H]23)O1` [topiramate, 2,3:4,5-Di-O-isopropylidene-β-D-fructopyranose sulfamate], the “time to peak plasma concentration” value in [1] was “approximately 2 hours”. Besides, the results for the reduction of clearance in series [1] (moderate renal impairment) and in series [1] (severe renal impairment) were 42% and 54%, respectively. The “oral absorption (in words)” value in series [1] (oral administration) is listed as “rapid”. Moreover, the “time to steady state plasma concentrations” value in [1] (repeated dosing) is listed as “about 4 days”.

Regarding `O=c1n(CCCN2CCN(c3cccc(Cl)c3)CC2)nc2ccccn12` [trazodone, 2-[3-[4-(3-chlorophenyl)-1-piperazinyl]propyl]-1,2,4-triazolo[4,3-a]pyridin-3(2H)-one], the “time to peak plasma levels” value in [1] (taken with food) was “two”.

For the molecule `CCCC(CCC)C(=O)O` [valproate, sodium hydrogen bis(2-propylpentanoate)], in series [6] (olanzapine co-administered with valproate), the “effect on each drug's metabolism” value is “little effect”.

Regarding `NS(=O)(=O)Cc1noc2ccccc12` [zonisamide, 1,2-benzisoxazole-3-methanesulfonamide], the “time to peak plasma concentration” value in series [1] was 2 to 6 h. The elimination half-life entry in series [1] (plasma) was “about 63 hours”. Moreover, in series [1] (red blood cells), the “elimination half-life in RBC” value is recorded as “approximately 105 hours”. Moreover, in series [1] (repeated dosing), the “time to steady state plasma concentrations” value was no more than 14 days.
